The target in one test is T1, CDK4/Cyclin D1 (Homo sapiens, UniProt P11802).
T1 construct: purchased ProQinase; host or cells: insect cell
Kind of test: CDK4/CyclinD1 Enzymatic Activity Assay (TR-FRET). It counts as biochemical. The following applies: CDK4/CyclinD1 1 nM, ATP 2 mM, read-out: CDK4_D1 IC50. As to the method: CDK4/CyclinD1 Enzymatic Activity Assay
The inhibitory activity of compounds was evaluated in vitro using TR-FRET assay with white 384-well low volume microplate (Greiner Bio-One). CDK4/Cyclin D1 catalyzed phosphorylation of peptide in the presence and absence of compounds was measured and used in IC50 determination. Recombinant protein complex CDK4/Cyclin D1, expressed from insect cell, was purchased from ProQinase. Testing compounds were dissolved in DMSO at 1 mM and tested in 9-dose IC50 mode. The reaction mixture was prepared by mixing CDK4/CyclinD1 (1 nM final), ULight-4E-BP1 (100 nM final, Perkinelmer, TRF0128-D), and ATP (2 mM final) in assay buffer (20 mM of HEPES pH 7.4, 1 mM of EGTA, 0.05% BSA, 0.005% Tween 20, and 1 mM TCEP). The compound of interest in DMSO was added to each well in 3-fold serial dilution by the dispenser (TECAN D300E) to make a 9.9 μL of reaction mixture. After 20 minutes preincubation at room temperature, 0.1 μL MgCl2 (10 mM final) was added to initiate the reaction. Following a 45 minute incubation at 37° C., the reaction was stopped by addition of 2 μL of quenching buffer consisting of Lance detection buffer (Perkinelmer CR97-100C), LANCE Ultra Europium-anti-P-4E-BP1 (Perkinelmer, TRF0216-D), EDTA, and incubated at room temperature for additional 60 minutes in dark. The reaction signal was measured by Envision multimode plate reader (PerkinElmer, 2102-0010). IC50 values were determined by fitting the data to the standard 4 parameters with Hill Slope using GraphPad Prism software.

The target in another test is CDK2/Cyclin E2 (Homo sapiens, UniProt P24941). Put plainly: CDK2/CyclinE2 Enzymatic Activity Assay (TR-FRET). It counts as biochemical. The following applies: CDK2/CyclinE2 1 nM, ATP 1 mM, read-out: CDK2_El IC50. As to the method:
CDK2/CyclinE2 Enzymatic Activity Assay
The inhibitory activity of compounds was evaluated in vitro using TR-FRET assay with white 384-well low volume microplate (Greiner Bio-One). CDK2/Cyclin E2 catalyzed phosphorylation of peptide in the presence and absence of compounds was measured and used in IC50 determination. Recombinant protein complex CDK2/Cyclin E2, expressed from insect cell, was purchased from ProQinase. Testing compounds were dissolved in DMSO at 1 mM and tested in 9-dose IC50 mode. The reaction mixture was prepared by mixing CDK2/CyclinE2 (1 nM final), ULight-4E-BP1 (50 nM final, Perkinelmer, TRF0128-D), and ATP (1 mM final) in assay buffer (20 mM of HEPES pH 7.4, 1 mM of EGTA, 0.05% BSA, 0.005% Tween 20, and 1 mM TCEP). The compound of interest in DMSO was added to each well in 3-fold serial dilution by dispenser (TECAN D300E) to make a 9.9 μL of reaction mixture. After 20 minutes preincubation at room temperature, 0.1 μL MgCl2 (10 mM final) was added to initiate the reaction. Following a 45 minute incubation at 37° C., the reaction was stopped by addition of 2 μL of quenching buffer consisting of Lance detection buffer (Perkinelmer CR97-100C), LANCE Ultra Europium-anti-P-4E-BP1 (Perkinelmer, TRF0216-D), EDTA, and incubate at room temperature for additional 60 minutes in the dark. The reaction signal was measured by Envision multimode plate reader (PerkinElmer, 2102-0010). IC50 values were determined by fitting the data to the standard 4 parameters with Hill Slope using GraphPad Prism software.
On the technique in general: In TR-FRET formats the signal depends on donor and acceptor labels being close together.

The test system of the next test is pRB in OVCAR3 cells. Kind of test: pRB ICW Assay in OVCAR3 Cells. It counts as cell-based. The following applies: Homo sapiens, OVCAR-3, incubated with compound for 2 hours, read-out: OVCAR3 p-RB ICW IC50. On the procedure:
pRB ICW Assay in OVCAR3 Cells
OVCAR3 cells were maintained in RPMI (Corning, Catalog #: 10-040-CV) supplemented with 10% v/v FBS (Gibco, Catalog #: 26140-079), 1% v/v Penicillin Streptomycin (Gibco, Catalog #15140-122.) OVCAR3 cells grown at log phase were trypsinized, counted, and resuspended in fresh medium to reach a final density of 6.7e4 cells/mL and 75 μL of culture were dispensed into a 384-well plate (Falcon, cat #353962) using a Multidrop Combi dispenser (Thermo Scientific). The next day, compounds were dispensed as a 9-point, ½ log serial dilution using a Tecan digital dispenser (D300e), and cells were incubated with compound for 2 hours in a humidified incubator at 37° C. A reference compound at a final concentration of 10 μM was used as a control for maximum inhibition. Each compound was tested in duplicates for each experiment. At the end of the incubation, 25 μL of 16% paraformaldehyde (Electron Microscopy, cat #15710) was slowly added to each well and the plate was incubated at room temperature (RT) for 30 minutes to fix cells. Cells were then permeabilized by incubating with 50 μL/well of wash buffer (lx PBS with 0.1% Triton X-100) 5×5 minutes, followed by 1 hour blocking with 30 μL/well of Odyssey blocking buffer (Li—COR, cat #927-40000), at RT. Anti-phosphor RB antibody (Cell signaling 8516S) was diluted 1:1000 in Odyssey blocking buffer and 20 μL was added to all wells and incubated overnight in 4° C. with gently rocking. The next day, cells were washed 5×5 min with 50 μL/well of wash buffer, followed with 1 hour incubation with secondary antibody and DRAQ5 diluted in Odyssey blocking buffer (1:500 dilution for secondary antibody and 1:2000 dilution for DRAQ5), 5×5 min washes, and one last wash with water. Plates were dried in 37° C. oven for 5 minutes and scanned using Li—COR Odyssey CLx imaging system to acquire intensities at 700 and 800 nm channels.

T1 sequence (P11802 whole entry): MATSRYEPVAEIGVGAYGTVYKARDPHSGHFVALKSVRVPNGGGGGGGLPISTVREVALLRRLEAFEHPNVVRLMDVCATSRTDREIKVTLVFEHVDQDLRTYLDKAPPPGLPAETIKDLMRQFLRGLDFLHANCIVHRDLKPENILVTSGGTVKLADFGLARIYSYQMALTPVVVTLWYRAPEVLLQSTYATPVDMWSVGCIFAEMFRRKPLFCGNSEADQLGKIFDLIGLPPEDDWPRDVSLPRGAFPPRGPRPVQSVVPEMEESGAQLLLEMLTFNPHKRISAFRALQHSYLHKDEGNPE
T1 sequence (P24385 whole entry partner): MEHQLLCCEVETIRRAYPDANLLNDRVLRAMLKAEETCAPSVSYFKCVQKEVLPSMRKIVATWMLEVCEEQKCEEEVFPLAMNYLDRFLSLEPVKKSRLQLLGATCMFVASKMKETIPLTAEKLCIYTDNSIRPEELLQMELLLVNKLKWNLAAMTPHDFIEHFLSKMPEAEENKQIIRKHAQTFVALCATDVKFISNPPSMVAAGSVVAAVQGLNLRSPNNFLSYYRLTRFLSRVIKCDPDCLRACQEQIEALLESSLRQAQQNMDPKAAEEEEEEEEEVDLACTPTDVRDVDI

The term IC50 denotes the concentration at which inhibition is half-maximal. In the case of `CC(C)C12CC(CO)CN1C(=O)c1cc(-c3nc(NC4CCN(S(C)(=O)=O)CC4)ncc3C(F)(F)F)sc12` (stereo not drawn) [Example 31, 7-(Hydroxymethyl)-8a-isopropyl-2-(2-((1-(methylsulfonyl)piperidin-4-yl)amino)-5-(trifluoromethyl)pyrimidin-4-yl)-6,7,8,8a-tetrahydro-4H-thieno[2,3-a]pyrrolizin-4-one], the IC50 at CDK4/Cyclin D1, on CDK2/Cyclin E2 and in the test with pRB in OVCAR3 cells was no more than 100 nM in each case.
Consider `CCC12CCCN1C(=O)c1cc(-c3nc(NC4CCN(S(C)(=O)=O)CC4)ncc3C)sc12` (stereo not drawn) [Example 16, 8a-Ethyl-2-[5-methyl-2-[(1-methylsulfonylpiperidin-4-yl)amino]pyrimidin-4-yl]-7,8-dihydro-6H-thieno[2,3-a]pyrrolizin-4-one], for which the half-inhibitory concentration (IC50) at CDK4/Cyclin D1, on CDK2/Cyclin E2 and in the test on pRB in OVCAR3 cells was no more than 100 nM in each case.
As to `CCC12CC(NC)CN1C(=O)c1cc(-c3nc(NC4CCN(S(=O)(=O)c5cnn(C)c5)CC4)ncc3C(F)(F)F)sc12` (stereo not drawn) [Example 49, 8a-Ethyl-2-(2-((1-((1-methyl-1H-pyrazol-4-yl)sulfonyl)piperidin-4-yl)amino)-5-(trifluoromethyl)pyrimidin-4-yl)-7-(methylamino)-6,7,8,8a-tetrahydro-4H-thieno[2,3-a]pyrrolizin-4-one], the IC50 on CDK4/Cyclin D1, at CDK2/Cyclin E2 and with pRB in OVCAR3 cells was no more than 100 nM throughout.
Turning to `CCC12CCCN1C(=O)c1cc(-c3nc(NC4CCN(S(=O)(=O)c5cnn(C)c5)CC4)ncc3C(F)(F)F)sc12` (stereo not drawn) [Example 37, 8a-Ethyl-2-(2-((1-((1-methyl-1H-pyrazol-4-yl)sulfonyl)piperidin-4-yl)amino)-5-(trifluoromethyl)pyrimidin-4-yl)-6,7,8,8a-tetrahydro-4H-thieno[2,3-a]pyrrolizin-4-one], the IC50 on CDK4/Cyclin D1, at CDK2/Cyclin E2 and in the test on pRB in OVCAR3 cells was no more than 100 nM throughout.
As for `CCC12CC(NC)CN1C(=O)c1cc(-c3nc(NC4CCN(S(C)(=O)=O)CC4)ncc3C(F)(F)F)sc12` (stereo not drawn) [Example 38, 8a-Ethyl-7-(methylamino)-2-(2-((1-(methylsulfonyl)piperidin-4-yl)amino)-5-(trifluoromethyl)pyrimidin-4-yl)-6,7,8,8a-tetrahydro-4H-thieno[2,3-a]pyrrolizin-4-one], the IC50 on CDK4/Cyclin D1, at CDK2/Cyclin E2 and with pRB in OVCAR3 cells was no more than 100 nM each time.
Regarding `CCC12CC(O)CN1C(=O)c1cc(-c3nc(NC4CCN(S(C)(=O)=O)CC4)ncc3C(F)(F)F)sc12` (stereo not drawn) [Example 33, 8a-Ethyl-7-hydroxy-2-(2-((1-(methylsulfonyl)piperidin-4-yl)amino)-5-(trifluoromethyl)pyrimidin-4-yl)-6,7,8,8a-tetrahydro-4H-thieno[2,3-a]pyrrolizin-4-one], the IC50 at CDK4/Cyclin D1, on CDK2/Cyclin E2 and with pRB in OVCAR3 cells was no more than 100 nM in each case.
For the compound `CC(C)C12CCOCCN1C(=O)c1cc(-c3nc(NC4CCN(S(C)(=O)=O)CC4)ncc3C(F)(F)F)sc12` (stereo not drawn) [Example 10, 10a-Isopropyl-2-(2-((1-(methylsulfonyl)piperidin-4-yl)amino)-5-(trifluoro-methyl)pyrimidin-4-yl)-6,7,10,10a-tetrahydrothieno[2′,3′:3,4]pyrrolo[1,2-d][1,4]oxazepin-4(9H)-one], the IC50 at CDK4/Cyclin D1 was no more than 100 nM; on CDK2/Cyclin E2 it was no more than 100 nM; with pRB in OVCAR3 cells, 100 to 500 nM.
`CS(=O)(=O)N1CCC(Nc2ncc(C(F)(F)F)c(-c3cc4c(s3)C3CCCN3C4=O)n2)CC1` (stereo not drawn) [Example 21, 2-(2-((1-(Methylsulfonyl)piperidin-4-yl)amino)-5-(trifluoromethyl)pyrimidin-4-yl)-6,7,8,8a-tetrahydro-4H-thieno[2,3-a]pyrrolizin-4-one]: the 50% inhibitory concentration (IC50) was no more than 100 nM at CDK4/Cyclin D1, no more than 100 nM at CDK2/Cyclin E2 and 100 to 500 nM in the test on pRB in OVCAR3 cells.
Turning to `CCC12CC(C)(O)CN1C(=O)c1cc(-c3nc(NC4CCN(S(C)(=O)=O)CC4)ncc3C(F)(F)F)sc12` (stereo not drawn) [Example 34, 8a-Ethyl-7-hydroxy-7-methyl-2-(2-((1-(methylsulfonyl)piperidin-4-yl)amino)-5-(trifluoromethyl)pyrimidin-4-yl)-6,7,8,8a-tetrahydro-4H-thieno[2,3-a]pyrrolizin-4-one], the 50% inhibitory concentration (IC50) at CDK4/Cyclin D1, on CDK2/Cyclin E2 and in the test on pRB in OVCAR3 cells was no more than 100 nM each time.
As for `CCC12CC(NC)CN1C(=O)c1cc(-c3nc(N[C@H]4CCN(S(=O)(=O)c5cnn(C)c5)C[C@H]4C)ncc3C(F)(F)F)sc12` (stereo partly drawn) [Example 44, 8a-Ethyl-2-(2-(((3R,4S)-3-methyl-1-((1-methyl-1H-pyrazol-4-yl)sulfonyl)piperidin-4-yl)amino)-5-(trifluoromethyl)pyrimidin-4-yl)-7-(methylamino)-6,7,8,8a-tetrahydro-4H-thieno[2,3-a]pyrrolizin-4-one], the concentration for half-maximal inhibition (IC50) at CDK4/Cyclin D1, on CDK2/Cyclin E2 and with pRB in OVCAR3 cells was no more than 100 nM throughout.
`CCC12CC(NC)CN1C(=O)c1cc(-c3nc(N[C@H]4CCN(S(C)(=O)=O)C[C@H]4C)ncc3C(F)(F)F)sc12` (stereo partly drawn) [Example 43, 8a-Ethyl-2-(2-(((3R,4S)-3-methyl-1-(methylsulfonyl)piperidin-4-yl)amino)-5-(trifluoromethyl)pyrimidin-4-yl)-7-(methylamino)-6,7,8,8a-tetrahydro-4H-thieno[2,3-a]pyrrolizin-4-one]: the IC50 on CDK4/Cyclin D1 was no more than 100 nM; at CDK2/Cyclin E2, no more than 100 nM; with pRB in OVCAR3 cells, 100 to 500 nM.
Take `COC1CN2C(=O)c3cc(-c4nc(NC5CCN(S(C)(=O)=O)CC5)ncc4C(F)(F)F)sc3C2(C(C)C)C1` (stereo not drawn) [Example 30, 8a-Isopropyl-7-methoxy-2-(2-((1-(methylsulfonyl)piperidin-4-yl)amino)-5-(trifluoromethyl)pyrimidin-4-yl)-6,7,8,8a-tetrahydro-4H-thieno[2,3-a]pyrrolizin-4-one]: the values for the half-inhibitory concentration (IC50) at CDK4/Cyclin D1, at CDK2/Cyclin E2 and in the test on pRB in OVCAR3 cells were no more than 100 nM, no more than 100 nM and 100 to 500 nM, respectively.
As for `CC12CCCCN1C(=O)c1cc(-c3nc(NC4CCN(S(C)(=O)=O)CC4)ncc3F)sc12` (stereo not drawn) [Example 6, 2-(5-Fluoro-2-((1-(methylsulfonyl)piperidin-4-yl)amino)pyrimidin-4-yl)-9a-methyl-7,8,9,9a-tetrahydrothieno[2,3-a]indolizin-4(6H)-one], the IC50 at CDK4/Cyclin D1, on CDK2/Cyclin E2 and in the test with pRB in OVCAR3 cells was no more than 100 nM in each case.

These data come from patent publication US11939340B2, “CDK inhibitors and their use as pharmaceuticals” (Prelude Therapeutics Incorporated, priority 2022, dated 2024).
